The source of these data is ChEMBL document CHEMBL5252515, “Discovery of 6-Amino-2-{[(1S)-1-methylbutyl]oxy}-9-[5-(1-piperidinyl)pentyl]-7,9-dihydro-8H-purin-8-one (GSK2245035), a Highly Potent and Selective Intranasal Toll-Like Receptor 7 Agonist for the Treatment of Asthma” (J Med Chem, 2016).

The source made the active and inactive calls. The rule behind the calls is not given here.

Series [1] addresses T1, Toll-like receptor 7 (Macaca fascicularis) (UniProt B3Y652).
T1 sequence (whole entry): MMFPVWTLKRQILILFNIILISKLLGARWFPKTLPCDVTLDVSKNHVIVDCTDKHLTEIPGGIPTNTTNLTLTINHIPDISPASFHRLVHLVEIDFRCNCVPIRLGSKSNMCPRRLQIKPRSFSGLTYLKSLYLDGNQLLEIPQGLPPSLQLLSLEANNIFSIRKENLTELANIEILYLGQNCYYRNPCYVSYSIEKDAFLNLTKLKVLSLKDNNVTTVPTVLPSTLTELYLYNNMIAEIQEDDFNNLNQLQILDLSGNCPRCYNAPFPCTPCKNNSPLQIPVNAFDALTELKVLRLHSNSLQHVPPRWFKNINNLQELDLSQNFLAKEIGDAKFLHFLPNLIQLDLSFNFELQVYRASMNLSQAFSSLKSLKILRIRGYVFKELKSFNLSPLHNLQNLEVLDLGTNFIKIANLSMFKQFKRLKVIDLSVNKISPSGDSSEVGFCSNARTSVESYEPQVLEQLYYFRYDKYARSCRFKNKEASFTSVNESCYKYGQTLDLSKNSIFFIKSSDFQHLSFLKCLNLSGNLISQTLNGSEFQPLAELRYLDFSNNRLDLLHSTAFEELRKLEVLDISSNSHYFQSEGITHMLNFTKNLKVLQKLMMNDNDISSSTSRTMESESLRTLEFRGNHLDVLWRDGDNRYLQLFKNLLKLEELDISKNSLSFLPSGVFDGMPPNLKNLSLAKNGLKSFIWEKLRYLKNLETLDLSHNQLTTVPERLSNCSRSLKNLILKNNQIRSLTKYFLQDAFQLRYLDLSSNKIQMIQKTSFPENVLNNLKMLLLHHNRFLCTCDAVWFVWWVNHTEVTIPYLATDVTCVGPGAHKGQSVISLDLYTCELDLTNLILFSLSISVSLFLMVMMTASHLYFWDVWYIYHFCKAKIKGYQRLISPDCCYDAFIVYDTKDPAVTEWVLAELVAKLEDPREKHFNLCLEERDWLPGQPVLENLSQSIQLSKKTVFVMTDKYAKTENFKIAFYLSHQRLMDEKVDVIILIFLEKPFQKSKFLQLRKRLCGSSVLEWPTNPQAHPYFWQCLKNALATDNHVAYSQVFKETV
In words: In vivo target occupancy at TLR7 in cynomolgus monkey assessed as fold increase in OAS1 mRNA expression in nasal scrape at 3 ng/kg administered intranasally incubated for 24 hrs by TaqMan analysis (reference value: 1.2). In kind it is functional.

A short description of series [2]: Tmax in rat after intranasal administration. In kind it is ADME. The note with it: in vivo, inhaled or intranasal.
In series [3] the test system is Rattus norvegicus. In words: Induction of IFNalpha production in rat at 0.4 mg/kg measured after 2 hrs. In kind it is functional, organism-based.
In series [4] the test system is Cynomolgus monkey. Nature of the series: Increase in IP-10 level in cynomolgus monkey serum at 30 ng/kg, administered intranasally after 6 hrs. In kind it is functional, organism-based. To be noted: Macaca fascicularis.
In series [5] the target is T1, Toll-like receptor 7 (Macaca fascicularis). In words: In vivo target occupancy at TLR7 in cynomolgus monkey assessed as fold increase in OAS2 mRNA expression in nasal scrape at 3 ng/kg administered intranasally incubated for 24 hrs by TaqMan analysis (reference value: 1). In kind it is functional. For orientation: Real-time PCR tracks product formation cycle by cycle.

For series [6] the target is unchanged. Nature of the series: In vivo target occupancy at TLR7 in cynomolgus monkey assessed as fold increase in IFIT2 mRNA expression in nasal scrape at 3 ng/kg administered intranasally incubated for 24 hrs by TaqMan analysis (reference value: 2.1). In kind it is functional.
For series [7] the target is unchanged. In words: In vivo target occupancy at TLR7 in cynomolgus monkey assessed as fold increase in CCL8 mRNA expression in nasal scrape at 30 ng/kg administered intranasally incubated for 24 hrs by TaqMan analysis (reference value: 1). In kind it is functional.
Series [8] is described as follows: Systemic clearance in mouse. In kind it is ADME, organism-based. The note with it: in vivo.
Series [9] relates to PBMC. In words: Immunomodulatory activity in human PBMC assessed as IL-10 production in presence of allergen timothy grass. In kind it is functional, cell-based.
For series [10], the system named is Cynomolgus monkey. In words: Increase in TNF-alpha level in cynomolgus monkey serum at 3000 ng/kg, administered intranasally after 6 hrs. In kind it is functional, organism-based. To be noted: Macaca fascicularis.
Series [11] can be described thus: Toxicity in female rat assessed as NOAEL after 14 days. To be noted: in vivo, time 14 day.
Series [12] concerns the target T2, Toll-like receptor 7 (Homo sapiens, UniProt Q9NYK1).
T2 sequence (Q9NYK1 whole entry): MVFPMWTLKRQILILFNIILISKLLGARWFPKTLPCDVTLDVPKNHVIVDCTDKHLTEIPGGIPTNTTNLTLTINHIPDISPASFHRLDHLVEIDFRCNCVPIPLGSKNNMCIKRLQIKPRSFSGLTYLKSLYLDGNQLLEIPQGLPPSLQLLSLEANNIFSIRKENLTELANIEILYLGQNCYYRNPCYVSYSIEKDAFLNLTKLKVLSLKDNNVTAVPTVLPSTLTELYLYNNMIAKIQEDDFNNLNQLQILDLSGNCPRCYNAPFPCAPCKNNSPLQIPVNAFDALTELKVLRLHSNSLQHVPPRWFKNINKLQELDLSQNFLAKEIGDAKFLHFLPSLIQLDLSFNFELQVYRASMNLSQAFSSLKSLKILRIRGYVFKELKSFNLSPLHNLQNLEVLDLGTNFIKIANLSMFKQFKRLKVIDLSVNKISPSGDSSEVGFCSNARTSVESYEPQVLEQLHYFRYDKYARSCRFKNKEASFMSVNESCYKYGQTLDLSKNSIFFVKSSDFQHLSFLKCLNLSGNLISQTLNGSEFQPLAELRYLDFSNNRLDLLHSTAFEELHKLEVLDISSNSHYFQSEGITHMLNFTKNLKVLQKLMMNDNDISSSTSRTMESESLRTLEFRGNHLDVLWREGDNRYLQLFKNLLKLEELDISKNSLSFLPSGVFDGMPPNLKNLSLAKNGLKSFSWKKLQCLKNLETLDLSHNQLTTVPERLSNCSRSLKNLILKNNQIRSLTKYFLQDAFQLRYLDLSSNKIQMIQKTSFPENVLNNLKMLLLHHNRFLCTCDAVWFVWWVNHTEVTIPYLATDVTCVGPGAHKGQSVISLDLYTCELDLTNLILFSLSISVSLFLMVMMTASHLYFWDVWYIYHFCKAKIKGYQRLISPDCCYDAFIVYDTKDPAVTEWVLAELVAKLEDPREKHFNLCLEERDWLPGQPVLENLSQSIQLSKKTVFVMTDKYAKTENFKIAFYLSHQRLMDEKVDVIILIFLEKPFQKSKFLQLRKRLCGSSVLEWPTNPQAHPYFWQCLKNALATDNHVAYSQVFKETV
Nature of the series: Agonist activity at TLR7 in human whole blood assessed as induction of IFNalpha production after 20 hrs by electrochemiluminescence assay. In kind it is tissue-based.

Series [13] can be described thus: Ocular toxicity in monkey at 1000 ug/ml post single dose administration after 48 hrs. To be noted: rhesus monkey, in vivo, dose 1000 µg/ml. On the set-up: species or system Macaca mulatta.
Series [14] can be described thus: Toxicity in male rat assessed as NOAEL after 8 weeks. The note with it: in vivo.
Series [15] deals with PBMC. Nature of the series: Immunomodulatory activity in human PBMC assessed as IFNalpha production incubated for 6 days in presence of allergen house dust mite. To be noted: time 6.0 day. In kind it is functional, cell-based.
Series [16] deals with T2, Toll-like receptor 7. Nature of the series: Agonist activity at TLR7 in human PBMC assessed as IFN-alpha production after 24 hrs by electrochemiluminescence assay. In kind it is cell-based.

As usually defined, the Tmax is the time from dosing to the highest level. By clearance is commonly meant the rate of elimination divided by the concentration. By NOAEL is commonly meant the highest tested level that showed no adverse finding. The term EC50 denotes the concentration needed to bring the measured effect to its halfway point. As for `CCC[C@H](C)Oc1nc(N)c2[nH]c(=O)n(CCCCCN3CCCCC3)c2n1` [GSK-2245035], the fold change (FC) in [1] stood at 38.9; in series [5] it was 128; in series [6], 108; in series [7], 19300. Also, in [2], the Tmax is no more than 5 min. For the same compound, the result in series [3], in series [4], in [9] and in [15] was Active. The clearance in [8] stood at 6.42 L/h/kg. Moreover, the outcome in series [10] was inactive. Further, in series [11], the NOAEL at 336 h turned out to be 0.772 mg/kg/day. Also, the EC50 in series [12] was 0.891 nM; in series [16], 7.94 nM. Also, in [13], the Activity entry is on record as “Toxic”. Further, the no observed adverse effect level (NOAEL) at 1344 h in [14] is 0.406 mg/kg.
